# Source: US11559497B2 (Guangzhou Dazhou Biomedicine Ltd., priority 2020, dated 2023)
# What was measured:
# [1] = test system: subjects diagnosed with major depressive disorder (MDD); experiment: Phase 1 clinical study: safety; assay type: in vivo, human
# Text: Safety data included adverse events (AEs), concomitant medications, PE, vital signs (VS), ECGs, clinical laboratory results, other safety measures based on questionnaires (Clinician-Administered Dissociative States Scale [CADSS], Observer's Assessment of Alertness/Sedation Scale [OAA/S], Brief Psychiatric Rating Scale [BPRS]), and the emergence of suicidality based on the suicidal ideation and suicidal behavior ratings of the Columbia-Suicide Severity Rating Scale (C-SSRS). Safety summaries and analyses were performed on the Safety Population and were presented by treatment. Observed data was summarized using counts and percentages for discrete variables and means, SD, median, inter-quartile range (25th-75th percentile), minimum, and maximum for continuous measures.
# [2] = cited from earlier work
# [3] = test system: patients; settings: cited from earlier work
# [4] = Phase 1 clinical study: plasma pharmacokinetics after ketamine transdermal patch; settings: for AUC / AUC(0-inf) / Cmax / half-life / Tmax: human, plasma, other: transdermal patch; for AUC(0-inf): AUCinf
# Method: Enrollment was planned to achieve participation of up to 14 adult subjects with MDD in the 3 stages of the protocol. Subjects were to be screened within 4 weeks of enrollment. Eligible subjects who provided written consent were to be enrolled into Stage 1 of the study. In Stage 1 of the study, subjects were to receive the low-dose transdermal patch. The amount of residual drug was to be measured and PK analysis conducted for each subject to inform the subsequent dosing. In Stage 2, after a 2 to 4 week washout period, a placebo patch was to be administered. A “deception” protocol was used in order to ensure the subjects remained blinded to the treatment. Placebo administration was followed by a 1 week washout period, after which subjects were to receive the high-dose transdermal patch in Stage 3. The overall study duration from screening until the end of Stage 3 was approximately 60 days, including both inpatient and outpatient portions of the study. The general study design is illustrated in FIG. 3.
# The patch was predicted to deliver systemically approximately 20 mg.
# For Stage 1, blood samples were collected pre-patch application, and at 2, 6, 12, 24, 28, 32, 48, 96, and 168 hours post-patch application.
# Blood samples were collected in tubes containing sodium heparin and stored on ice or room temperature until centrifuged under refrigeration or room temperature for at least 10 minutes at 3,000 revolutions per minute. After centrifugation, plasma was removed, divided into 2 aliquots of approximately 0.6 mL each, frozen, and stored at or below −20° C. Blood was processed to plasma and frozen within 1 hour of collection. Processed frozen plasma samples were transferred on dry ice to the analytical laboratory and were stored at or below −20° C. until bioanalysis was performed.
# A non-compartmental analysis (NCA) was used to calculate PK parameters using Phoenix® WinNonlin® 6.4 or later (Certara, USA).
# [5] = Stage 1: Ketamine Low-Dose (N = 18)
# [6] = Stage 3: Ketamine High-Dose (N = 12)
smiles,measurement,setting,value
"CNC1(c2ccccc2Cl)CCCCC1=O (racemic) [Ketamine, ketamine]",overall safety and tolerability,[1]; 20 mg and 40 mg doses,generally safe and well tolerated
same,"At least 1 TEAE, # of Events",[1]; [5],3
same,"At least 1 TEAE, n (%)",[1]; [5],3 (16.7) n (%)
same,"Cardiac disorders, # of Events",[1]; [5],0
same,"Cardiac disorders, n (%)",[1]; [5],0 n (%)
same,"Contusion, # of Events",[1]; [5],1
same,"Contusion, n (%)",[1]; [5],1(5.6) n (%)
same,"Depression, # of Events",[1]; [5],0
same,"Depression, n (%)",[1]; [5],0 n (%)
same,"Dermatitis, # of Events",[1]; [5],0
same,"Dermatitis, n (%)",[1]; [5],0 n (%)
same,"Diarrhoea, # of Events",[1]; [5],1
same,"Diarrhoea, n (%)",[1]; [5],1(5.6) n (%)
same,"Erythema, # of Events",[1]; [5],0
same,"Erythema, n (%)",[1]; [5],0 n (%)
same,"Gastrointestinal disorders, # of Events",[1]; [5],1
same,"Gastrointestinal disorders, n (%)",[1]; [5],1 (5.6) n (%)
same,"Headache, # of Events",[1]; [5],0
same,"Headache, n (%)",[1]; [5],0 n (%)
same,"Infections and infestations, # of Events",[1]; [5],0
same,"Infections and infestations, n (%)",[1]; [5],0 n (%)
same,"Injury, poisoning, and procedural complications, # of Events",[1]; [5],1
same,"Injury, poisoning, and procedural complications, n (%)",[1]; [5],1 (5.6) n (%)
same,"Nervous system disorders, # of Events",[1]; [5],1
same,"Nervous system disorders, n (%)",[1]; [5],1 (5.6) n (%)
same,"Psychiatric disorders, # of Events",[1]; [5],0
same,"Psychiatric disorders, n (%)",[1]; [5],0 n (%)
same,"Skin and subcutaneous tissue disorders, # of Events",[1]; [5],0
same,"Skin and subcutaneous tissue disorders, n (%)",[1]; [5],0 n (%)
same,"Somnolence, # of Events",[1]; [5],1
same,"Somnolence, n (%)",[1]; [5],1 (5.6) n (%)
same,"Swelling face, # of Events",[1]; [5],0
same,"Swelling face, n (%)",[1]; [5],0 n (%)
same,"Tachycardia, # of Events",[1]; [5],0
same,"Tachycardia, n (%)",[1]; [5],0 n (%)
same,"Urinary tract infection, # of Events",[1]; [5],0
same,"Urinary tract infection, n (%)",[1]; [5],0 n (%)
same,"At least 1 TEAE, # of Events",[1]; [6],5
same,"At least 1 TEAE, n (%)",[1]; [6],4 (33.3) n (%)
same,"Cardiac disorders, # of Events",[1]; [6],0
same,"Cardiac disorders, n (%)",[1]; [6],0 n (%)
same,"Contusion, # of Events",[1]; [6],1
same,"Contusion, n (%)",[1]; [6],1 (8.3) n (%)
same,"Depression, # of Events",[1]; [6],1
same,"Depression, n (%)",[1]; [6],1 (8.3) n (%)
same,"Dermatitis, # of Events",[1]; [6],0
same,"Dermatitis, n (%)",[1]; [6],0 n (%)
same,"Diarrhoea, # of Events",[1]; [6],0
same,"Diarrhoea, n (%)",[1]; [6],0 n (%)
same,"Erythema, # of Events",[1]; [6],1
same,"Erythema, n (%)",[1]; [6],1 (8.3) n (%)
same,"Gastrointestinal disorders, # of Events",[1]; [6],0
same,"Gastrointestinal disorders, n (%)",[1]; [6],0 n (%)
same,"Headache, # of Events",[1]; [6],1
same,"Headache, n (%)",[1]; [6],1 (8.3) n (%)
same,"Infections and infestations, # of Events",[1]; [6],0
same,"Infections and infestations, n (%)",[1]; [6],0 n (%)
same,"Injury, poisoning, and procedural complications, # of Events",[1]; [6],1
same,"Injury, poisoning, and procedural complications, n (%)",[1]; [6],1 (8.3) n (%)
same,"Nervous system disorders, # of Events",[1]; [6],1
same,"Nervous system disorders, n (%)",[1]; [6],1 (8.3) n (%)
same,"Psychiatric disorders, # of Events",[1]; [6],1
same,"Psychiatric disorders, n (%)",[1]; [6],1 (8.3) n (%)
same,"Skin and subcutaneous tissue disorders, # of Events",[1]; [6],2
same,"Skin and subcutaneous tissue disorders, n (%)",[1]; [6],1 (8.3) n (%)
same,"Somnolence, # of Events",[1]; [6],0
same,"Somnolence, n (%)",[1]; [6],0 n (%)
same,"Swelling face, # of Events",[1]; [6],1
same,"Swelling face, n (%)",[1]; [6],1 (8.3) n (%)
same,"Tachycardia, # of Events",[1]; [6],0
same,"Tachycardia, n (%)",[1]; [6],0 n (%)
same,"Urinary tract infection, # of Events",[1]; [6],0
same,"Urinary tract infection, n (%)",[1]; [6],0 n (%)
same,OAA/S change from baseline composite score between treatments,[1]; any timepoint,No significant differences
same,TEAEs considered possibly related to the study drug,[1]; headache and diarrhoea,2
same,PR interval or QTcB interval,"[1]; human, in vivo",No trends in mean change from baseline
same,"SBP, DBP, oxygen saturation, temperature","[1]; human, in vivo",No notable mean changes from baseline
same,adverse reactions at the patch application site,"[1]; human, in vivo",no adverse reactions noted at the patch application site
same,deaths or SAEs,"[1]; human, in vivo",no deaths or SAEs
same,laboratory parameters,"[1]; human, in vivo",no clinically significant abnormal trends
same,severe TEAEs,"[1]; human, in vivo",no severe TEAEs
same,respiratory rate and HR,[1]; ketamine high dose,a decrease in mean respiratory rate and an increase in HR compared to baseline
same,"BPRS, BPRS-Positive subscale, CADSS total score post-patch application",[1]; low-dose or high-dose,"no increase in the total score of the BPRS, the BPRS-Positive subscale, or the CADSS"
same,TEAEs considered probably related to the study drug,[1]; somnolence,1
same,absolute oral bioavailability,[2]; humans,10-20%
same,systemic (primarily hepatic) clearance,[2]; in vivo,about 19 ml/min·kg
same,time after which side effects typically resolved,[3]; 0.5 mg/kg 40 minutes IV infusion,about 2 hours
same,duration of antidepressant effect after single dose,[3]; IV infusion or intranasal spray,about 3 days
same,reduction of opioid consumption,"[3]; low-dose IV, perioperative pain, meta-analysis",40%
same,plasma concentration,[4]; 96 hours post dose,minimal values
same,plasma concentration,[4]; 168 hours post dose,below quantification limit
same,Extrap,"[4]; Stage 1, Mean",6%
same,Extrap,"[4]; Stage 1, Median",6%
same,Extrap,"[4]; Stage 3, Mean",4%
same,Extrap,"[4]; Stage 3, Median",3%
same,AUC,"[4]; 20 mg, AUCall, Stage 1 (60 cm^2 patch, 24 h, low-dose), Mean",284 ng·h/mL
same,AUC,"[4]; 20 mg, AUCall, Stage 1 (60 cm^2 patch, 24 h, low-dose), Median",280 ng·h/mL
same,AUC(0-inf),"[4]; 20 mg, Stage 1, Mean",299 ng·h/mL
same,AUC(0-inf),"[4]; 20 mg, Stage 1, Median",274 ng·h/mL
same,Cmax,"[4]; 20 mg, Stage 1, Mean",~10.3 ng/mL
same,Cmax,"[4]; 20 mg, Stage 1, Median",9.92 ng/mL
same,half-life,"[4]; 20 mg, T1/2, Stage 1, Mean",13.2 h
same,half-life,"[4]; 20 mg, T1/2, Stage 1, Median",13.7 h
same,Tmax,"[4]; 20 mg, Stage 1, Mean",27.1 h
same,Tmax,"[4]; 20 mg, Stage 1, Median",28 h
same,AUC,"[4]; 20 mg, average AUC of ketamine per cm^2 patch over 24 hours, Stage 1",3.62 ng·h/mL
same,AUC,"[4]; 40 mg, AUCall, Stage 3 (20 and 60 cm^2 patches, high-dose), Mean",393 ng·h/mL
same,AUC,"[4]; 40 mg, AUCall, Stage 3 (20 and 60 cm^2 patches, high-dose), Median",339 ng·h/mL
same,AUC(0-inf),"[4]; 40 mg, Stage 3, Mean",423 ng·h/mL
same,AUC(0-inf),"[4]; 40 mg, Stage 3, Median",362 ng·h/mL
same,Cmax,"[4]; 40 mg, Stage 3, Mean",~14.4 ng/mL
same,Cmax,"[4]; 40 mg, Stage 3, Median",9.67 ng/mL
same,half-life,"[4]; 40 mg, T1/2, Stage 3, Mean",13.8 h
same,half-life,"[4]; 40 mg, T1/2, Stage 3, Median",14.9 h
same,Tmax,"[4]; 40 mg, Stage 3, Mean",27 h
same,Tmax,"[4]; 40 mg, Stage 3, Median",28 h
same,AUC,"[4]; 40 mg, average AUC of ketamine per cm^2 patch over 24 hours, Stage 3",4.17 ng·h/mL
